US6716833B2, “Acetylenic α-amino acid-based sulfonamide hydroxamic acid tace inhibitors” (priority 1999, dated 2004)
Counter-ions that a name gives are not always drawn. Like-named read-outs stand apart in the source and are kept apart here.

Key:
Format in all cases: biochemical
MMP-1 = biological target: T1, MMP-1 (Homo sapiens, UniProt P03956); experiment: MMP-1 inhibition (thiopeptide or fluorescent peptide substrate); conditions: read-out: MMP-1 IC50
T1 sequence (P03956 100-469): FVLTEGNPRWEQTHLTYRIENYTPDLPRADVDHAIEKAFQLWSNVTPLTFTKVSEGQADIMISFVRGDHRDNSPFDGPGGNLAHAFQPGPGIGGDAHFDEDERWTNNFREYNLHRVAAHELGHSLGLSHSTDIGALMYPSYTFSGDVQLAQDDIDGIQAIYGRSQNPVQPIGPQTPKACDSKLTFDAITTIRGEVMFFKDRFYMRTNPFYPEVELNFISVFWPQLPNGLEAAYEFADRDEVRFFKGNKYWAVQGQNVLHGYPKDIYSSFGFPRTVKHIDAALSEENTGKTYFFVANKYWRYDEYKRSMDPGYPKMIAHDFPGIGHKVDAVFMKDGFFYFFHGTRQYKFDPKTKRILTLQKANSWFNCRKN
Description: The enzyme activity is measured by the rate of the color increase. The thiopeptide substrate is made up fresh as a 20 mM stock in 100% DMSO and the DTNB is dissolved in 100% DMSO as a 100 mM stock and stored in the dark at room temperature. Both the substrate and DTNB are diluted together to 1 mM with substrate buffer (50 mM HEPES pH 7.5, 5 mM CaCl2) before use. The stock of enzyme is diluted with buffer (50 mM HEPES, pH 7.5, 5 mM CaCl2, 0.02% Brij) to the desired final concentration.
Alternatively, a fluorescent peptide substrate is used. In this test procedure, the peptide substrate contains a fluorescent group and a quenching group. Upon cleavage of the substrate by an MMP, the fluorescence that is generated is quantitated on the fluorescence plate reader. The assay is run in HCBC assay buffer (50 mM HEPES, pH 7.0, 5 mM Ca^+2, 0.02% Brij, 0.5% Cysteine), with human recombinant MMP-1, MMP-9, or MMP-13. […] For the assay, substrate and enzymes are diluted in HCBC buffer to the desired concentrations. Compounds are added to the 96 well plate containing enzyme and the reaction is started by the addition of substrate.
For either the thiopeptide or fluorescent peptide test procedures, the slope of the line is calculated and represents the reaction rate. The linearity of the reaction rate is confirmed (r^2>0.85). The mean (x±sem) of the control rate is calculated and compared for statistical significance (p<0.05) with drug-treated rates using Dunnett's multiple comparison test.

MMP-9 = MMP-9 (Homo sapiens, UniProt P14780); experiment: MMP-9 inhibition (thiopeptide or fluorescent peptide substrate); conditions: read-out: MMP-9 IC50
Sequence of MMP-9 (P14780 94-707): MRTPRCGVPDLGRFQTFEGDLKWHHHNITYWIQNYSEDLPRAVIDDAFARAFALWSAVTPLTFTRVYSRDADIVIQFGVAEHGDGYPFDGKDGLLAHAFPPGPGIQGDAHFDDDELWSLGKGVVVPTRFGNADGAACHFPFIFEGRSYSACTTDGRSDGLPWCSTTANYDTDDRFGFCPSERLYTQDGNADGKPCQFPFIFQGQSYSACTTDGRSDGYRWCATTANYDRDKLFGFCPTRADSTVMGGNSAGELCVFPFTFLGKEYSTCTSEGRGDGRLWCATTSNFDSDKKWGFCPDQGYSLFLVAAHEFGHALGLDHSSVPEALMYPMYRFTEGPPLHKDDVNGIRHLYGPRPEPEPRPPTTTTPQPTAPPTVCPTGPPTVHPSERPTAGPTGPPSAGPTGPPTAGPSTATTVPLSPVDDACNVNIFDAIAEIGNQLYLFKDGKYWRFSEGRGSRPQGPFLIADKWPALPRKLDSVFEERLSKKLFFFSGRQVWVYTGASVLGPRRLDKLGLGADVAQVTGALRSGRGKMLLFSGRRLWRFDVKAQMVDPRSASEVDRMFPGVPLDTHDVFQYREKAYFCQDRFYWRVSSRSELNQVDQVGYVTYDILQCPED

MMP-13 = MMP-13 (Homo sapiens, UniProt P45452); experiment: MMP-13 inhibition (thiopeptide or fluorescent peptide substrate)
[1] = biological target: TNF-α converting enzyme (TACE) (Homo sapiens, UniProt P78536); experiment: TACE inhibition (fluorescent peptidyl substrate); conditions: read-out: TACE IC50
Sequence of TNF-α converting enzyme (TACE) (P78536 215-824, species assumed): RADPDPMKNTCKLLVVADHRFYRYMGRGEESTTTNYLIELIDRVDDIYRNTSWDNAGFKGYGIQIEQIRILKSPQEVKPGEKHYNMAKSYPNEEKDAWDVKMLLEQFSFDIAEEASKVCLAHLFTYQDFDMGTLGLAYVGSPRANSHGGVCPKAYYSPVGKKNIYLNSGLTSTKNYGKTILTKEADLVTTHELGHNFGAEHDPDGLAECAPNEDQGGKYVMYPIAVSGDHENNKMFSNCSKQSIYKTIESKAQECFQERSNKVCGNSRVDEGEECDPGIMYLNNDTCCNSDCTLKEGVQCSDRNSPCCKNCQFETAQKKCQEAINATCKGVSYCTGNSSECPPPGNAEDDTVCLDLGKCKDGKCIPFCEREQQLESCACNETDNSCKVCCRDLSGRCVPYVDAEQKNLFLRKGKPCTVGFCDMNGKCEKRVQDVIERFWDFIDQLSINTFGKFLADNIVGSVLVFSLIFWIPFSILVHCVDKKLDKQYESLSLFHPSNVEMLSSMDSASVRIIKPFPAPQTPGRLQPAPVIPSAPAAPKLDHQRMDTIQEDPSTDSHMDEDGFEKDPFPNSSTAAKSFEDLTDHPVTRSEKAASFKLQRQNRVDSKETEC

[2] = Table 10, read-out: MMP-13 IC50
[3] = Table 11, read-out: MMP-13 IC50

SMILES | IC50 (MMP-9) [µM] | IC50 [1] [µM] | IC50 (MMP-1; Table 11) [µM] | IC50 (MMP-13; [3]) [µM] | IC50 ([1]; Table 11) [µM] | also measured
CC#CCOc1ccc(S(=O)(=O)N2CC[S+]([O-])C(C)(C)C2C(=O)NO)cc1 (single isomer, unassigned) [Example 255] |  |  |  |  |  | IC50 (MMP-1; Table 9): 0.046 µM; IC50 (MMP-9; Table 9): 0.029 µM; IC50 (MMP-13; Table 9, read-out: MMP-13 IC50): 0.0087 µM; IC50 ([1]; Table 9): 0.024 µM
CC#CCOc1ccc(S(=O)(=O)N2CC[S+]([O-])C(C)(C)C2C(=O)NO)cc1 (single isomer, unassigned) [Example 256] |  |  |  |  |  | IC50 (MMP-1; Table 9): 0.043 µM; IC50 (MMP-9; Table 9): 0.145 µM; IC50 (MMP-13; Table 9, read-out: MMP-13 IC50): 0.048 µM; IC50 ([1]; Table 9): 0.025 µM
CC#CCOc1ccc(S(=O)(=O)N(Cc2cccnc2)C(C)C(=O)NO)cc1 (stereo not shown) [Example 33, 2-[(4-but-2-ynyloxy-Benzenesulfonyl)-pyridin-3-ylmethyl-amino]-N-hydroxy-propionamide Hydrochloride] | 0.065 | 0.005 |  |  |  | IC50 (MMP-1): 0.239 µM; IC50 (MMP-13; read-out: MMP-13 IC50): 0.026 µM
CCCCC#CCOc1ccc(S(=O)(=O)N2CCSC(C)(C)C2C(=O)NO)cc1 (stereo not shown) [Example 40, 4-(4-hept-2-ynyloxy-Benzenesulfonyl)-2,2-dimethyl-thiomorpholine-3-carboxylic Acid Hydroxyamide] |  |  |  |  |  | IC50 (MMP-1; Table 9): 0.029 µM; IC50 (MMP-9; Table 9): 0.0078 µM; IC50 (MMP-13; Table 9, read-out: MMP-13 IC50): 0.0066 µM; IC50 ([1]; Table 9): 0.023 µM
CC#CCOc1ccc(S(=O)(=O)N(C)C(C(=O)NO)C(C)(C)SCc2cccnc2)cc1 (stereo not shown) [Example 152, 2-[(4-but-2-ynyloxy-Benenesulfonyl)-methyl-amino]-N-hydroxy-3-methyl-3-(pyridin-3-ylmethylsulfanyl)-butyramide] | 0.0037 | 0.074 |  |  |  | IC50 (MMP-13; MMP-13 IC50): 0.0017 µM
CC#CCOc1ccc(S(=O)(=O)N2CCNCC2C(=O)NO)cc1 (stereo not shown) [Example 214, 1-(4-but-2-ynyloxy-Benzenesulfonyl)-piperazine-2-carboxylic Acidhydroxyamide] | 0.014 | 0.023 |  |  |  | IC50 (MMP-13; read-out: MMP-13 IC50): 0.0076 µM
CC#CCOc1ccc(S(=O)(=O)N2CCN(C(=O)N(CC)CC)CC2C(=O)NO)cc1 (stereo not shown) [Example 216, 4-(4-but-2-ynyloxy-Benzenesulfonyl)-piperazine-1,3-dicarboxylic Acid 1-Diethylamide 3-Hydroxyamide] | 0.221 | 0.028 |  |  |  | IC50 (MMP-13; read-out: MMP-13 IC50): 0.097 µM
CC#CCOc1ccc(S(=O)(=O)N2CCN(C(=O)OCc3ccccc3)CC2C(=O)NO)cc1 (stereo not shown) [Example 219, Benzyl 4-{[4-(2-Butynyloxy)phenyl]sulfonyl}-3-[(hydroxyamino)carbonyl]-1-piperazinecarboxylate] | 0.045 |  |  |  |  | IC50 (MMP-1): 0.176 µM; IC50 (MMP-13; read-out: MMP-13 IC50): 0.01 µM
CC#CCOc1ccc(S(=O)(=O)N2CCN(C(=O)c3cccs3)CC2C(=O)NO)cc1 (stereo not shown) [Example 226, 1-(4-but-2-ynyloxy-Benzenesulfonyl)-4-(thiophene-2-carbonyl)-piperazine-2-carboxylic Acid Hydroxyamide] | 0.251 | 0.012 |  |  |  | IC50 (MMP-13; read-out: MMP-13 IC50): 0.119 µM
CC#CCOc1ccc(S(=O)(=O)N2CCN(C(=O)OC)CC2C(=O)NO)cc1 (stereo not shown) [Example 228, 4-(4-but-2-ynyloxy-Benzenesulfonyl)-3-hydroxycarbamoyl-piperazine-1-carboxylic Acid Methyl Ester] | 0.071 | 0.009 |  |  |  | IC50 (MMP-13; read-out: MMP-13 IC50): 0.0092 µM
CC1(C)SCCN(S(=O)(=O)c2ccc(OCC#CCN)cc2)C1C(=O)NO (stereo not shown) [Example 265, 4-({4-[(4-Amino-2-butynyl)oxy]phenyl}sulfonyl)-N-hydroxy-2,2-dimethyl-3-thiomorpholine Carboxamide] |  |  |  |  |  | IC50 (MMP-1; Table 10): 0.097 µM; IC50 (MMP-9; Table 10): 0.0087 µM; IC50 (MMP-13; [2]): 0.0075 µM
CC1(C)SCCN(S(=O)(=O)c2ccc(OCC#CCCCCO)cc2)[C@H]1C(=O)NO [Example 269, (3S)-N-Hydroxy-4-([4-[(7-hydroxy-2-heptynyl)oxy]phenyl}sulfonyl)-2,2-dimethyl-3-thiomorpholinecarboxamide] |  |  |  |  |  | IC50 (MMP-1; Table 10): 0.101 µM; IC50 (MMP-13; [2]): 0.017 µM; IC50 ([1]; Table 10): 0.053 µM
CC#CCOc1ccc(S(=O)(=O)N2[C@@H](C(=O)NO)C(C)(C)SC[C@@H]2C)cc1 [Example 270, (3S,5S)-4-{[4-(2-Butynyloxy)phenyl]sulfonyl}-N-hydroxy-2,2,5-trimethyl-3-thiomorpholinecarboxamide] |  |  | 0.032 | 0.061 | 0.086 | 
CC#CCOc1ccc(S(=O)(=O)N2[C@H](C)CSC(C)(C)[C@@H]2C(=O)NO)cc1 [Example 271, (3S,5R)-4-{[4-(2-Butynyloxy)phenyl]sulfonyl}-N-hydroxy-2,2,5-trimethyl-3-thiomorpholinecarboxamide] |  |  | 0.047 | 0.088 | 0.045 | 
CC#CCOc1ccc(S(=O)(=O)N2C[C@H](CC(=O)OC(C)(C)C)SC(C)(C)[C@@H]2C(=O)NO)cc1 [Example 277, tert-Butyl{(2S,5S)-4-{[4-(2-butynyloxy)phenyl]sulfonyl}-5-[(hydroxyamino)carbonyl]-6,6-dimethylthiomorpholinyl}acetate] |  |  | 0.0078 | 0.0076 | 0.234 | 
CC#CCOc1ccc(S(=O)(=O)N2C[C@H](CC(=O)O)SC(C)(C)[C@@H]2C(=O)NO)cc1 [Example 278, [(2S,5S)-4-{[4-(2-Butynyloxy)phenyl]sulfonyl}-5-[(hydroxyamino)carbonyl]-6,6-dimethylthiomorpholinyl}acetic Acid] |  |  | 0.017 | 0.0067 | 0.02 | 
CC#CCOc1ccc(S(=O)(=O)N2C[C@H](CC(=O)NO)SC(C)(C)[C@@H]2C(=O)NO)cc1 [Example 279, (3S,6S)-4-{[4-(2-Butynyloxy)phenyl]sulfonyl}-N-hydroxy-6-[2-(hydroxyamino)-2-oxoethyl]-2,2-dimethyl-3-thiomorpholinecarboxamide] |  |  | 0.021 | 0.0045 | 0.046 | 
CC#CCOc1ccc(S(=O)(=O)N2C[C@H](CC(N)=O)SC(C)(C)[C@@H]2C(=O)NO)cc1 [Example 280, (3S,6S)-6-(2-Amino-2-oxoethyl)-4-{[4-(2-butynyloxy)phenyl]sulfonyl}-N-hydroxy-2,2-dimethyl-3-thiomorpholinecarboxamide] |  |  | 0.035 | 0.029 | 0.042 | 
CC#CCOc1ccc(S(=O)(=O)N2C[C@H](CC(=O)N(C)C)SC(C)(C)[C@@H]2C(=O)NO)cc1 [Example 281, (3S,6S)-4-{[4-(2-Butynyloxy)phenyl]sulfonyl}-6-[2-(dimethylamino)-2-oxoethyl]-N-hydroxy-2,2-dimethyl-3-thiomorpholinecarboxamide] |  |  | 0.05 | 0.023 | 0.13 | 
CC#CCOc1ccc(S(=O)(=O)N2C[C@H](CC(=O)N3CCOCC3)SC(C)(C)[C@@H]2C(=O)NO)cc1 [Example 282, (3S,6S)-4-{[4-(2-Butynyloxy)phenyl]sulfonyl}-N-hydroxy-2,2-dimethyl-6-[2-(4-morpholinyl)-2-oxoethyl]-3-thiomorpholinecarboxamide] |  |  | 0.025 | 0.02 | 0.095 | 
CC#CCOc1ccc(S(=O)(=O)N2C[C@H](CC(=O)N3CCN(C)CC3)SC(C)(C)[C@@H]2C(=O)NO)cc1 [Example 283, (3S,6S)-4-{[4-(2-Butynyloxy)phenyl]sulfonyl}-N-hydroxy-2,2-dimethyl-6-[2-(4-methyl-1-piperazinyl)-2-oxoethyl]-3-thiomorpholinecarboxamide hydrochloride] |  |  | 0.028 | 0.023 | 0.143 | 
CC#CCOc1ccc(S(=O)(=O)N2C[C@H](CC(=O)NCCN(C)C)SC(C)(C)[C@@H]2C(=O)NO)cc1 [Example 284, (3S,6S)-4-{[4-(2-Butynyloxy)phenyl]sulfonyl}-6-(2-{[2-(dimethylamino)ethyl]amino}-2-oxoethyl)-N-hydroxy-2,2-dimethyl-3-thiomorpholinecarboxamide] |  |  | 0.031 | 0.076 | 0.125 | 
CC#CCOc1ccc(S(=O)(=O)N2CCN(Cc3ccccc3)CCC2C(=O)NO)cc1 (stereo not shown) [Example 290, 1-Benzyl-4-{[4-(2-butynyloxy)phenyl]sulfonyl}-N-hydroxy-1,4-diazepane-5-carboxamide] | 0.025 | 0.083 |  |  |  | IC50 (MMP-1): 0.287 µM
CC#CCOc1ccc(S(=O)(=O)N2CCNCCC2C(=O)NO)cc1 (stereo not shown) [Example 292, 4-{[4-(2-Butynyloxy)phenyl]sulfonyl}-N-hydroxy-1,4-diazepane-5-carboxamide] |  | 0.024 |  |  |  | IC50 (MMP-1): 0.274 µM; IC50 (MMP-13; read-out: MMP-13 IC50): 0.033 µM
CC#CCOc1ccc(S(=O)(=O)N2CCN(C)CCC2C(=O)NO)cc1 (stereo not shown) [Example 293, 4-{[4-(2-Butynyloxy)phenyl]sulfonyl}-N-hydroxy-1-methyl-1,4-diazepane-5-carboxamide] |  | 0.023 |  |  |  | IC50 (MMP-1): 0.238 µM; IC50 (MMP-13; MMP-13 IC50): 0.021 µM
CC#CCOc1ccc(S(=O)(=O)N2C=CSC(C)(C)[C@@H]2C(=O)NO)cc1 [Example 379, (3S)-4-{[4-(2-Butynyloxy)phenyl]sulfonyl}-N-hydroxy-2,2-dimethyl-3,4-dihydro-2H-1,4-thiazine-3-carboxamide] |  |  | 0.316 | 0.271 | 0.016 | 
